Assay results published in DBAASP.
Converted amounts (≈) assume the structure as drawn. Blank lines part the entries; values can stand above or below the molecule they belong to.

Tests used:
Assay in all cases: ≥ marks a high value that may be exact or a test limit, other limits are often not marked, values filed in µg/mL are converted to µM
Escherichia coli TOP 10 = tested on: Escherichia coli TOP 10
[1] = tested on: Salmonella enterica subsp. enterica serovar Typhimurium ATCC 14028
[2] = tested on: Pseudomonas aeruginosa ATCC 13388
[3] = tested on: Escherichia coli ATCC 11219
[4] = tested on: Staphylococcus aureus ATCC 6538
[5] = tested on: Klebsiella pneumoniae ATCC 10031
[6] = tested on: Staphylococcus aureus KCTC 1621
Escherichia coli JM109 = tested on: Escherichia coli JM109
[7] = tested on: Escherichia coli KCTC 1682
[8] = tested on: Staphylococcus epidermidis KCTC 1917
[9] = tested on: Pseudomonas aeruginosa KCTC 1637
[10] = tested on: Bacillus subtilis KCTC 3068
[11] = tested on: Salmonella typhimurium KCTC 1926
[12] = tested on: Bacillus subtilis ATCC 6633
[13] = tested on: Shigella dysenteriae ATCC 9752
[14] = tested on: Pseudomonas aeruginosa ATCC 27853
[15] = tested on: Staphylococcus epidermidis ATCC 12228
[16] = tested on: Staphylococcus aureus ATCC 6538P
[17] = tested on: Staphylococcus aureus TK784
[18] = tested on: Escherichia coli ATCC 25922
[19] = tested on: Micrococcus luteus ATCC 10240
[20] = tested on: Candida albicans TIMM 1768
[21] = tested on: Trichosporon beigelii KCTC 7707
[22] = tested on: Bacillus subtilis KCTC 1918
Escherichia coli D21 = tested on: Escherichia coli D21
[23] = tested on: Streptococcus mutans ATCC 25175
[24] = tested on: Staphylococcus aureus ATCC 12600

SMILES: CC[C@H](C)[C@H](NC(=O)[C@H](CO)NC(=O)[C@H](CCCN=C(N)N)NC(=O)[C@@H](NC(=O)[C@H](CS)NC(=O)[C@H](CO)NC(=O)[C@@H]1CCCN1C(=O)[C@H](CC(C)C)NC(=O)[C@H](Cc1ccccc1)NC(=O)[C@H](CCCN=C(N)N)NC(=O)[C@@H](N)CCCCN)C(C)C)C(=O)N[C@@H](CCC(N)=O)C(=O)N[C@@H](CC(N)=O)C(=O)N[C@@H](CC(C)C)C(=O)N[C@@H](CC(=O)O)C(=O)N[C@@H](CC(=O)O)C(=O)N[C@@H](C)C(=O)N[C@@H](CC(C)C)C(=O)N1CCC[C@H]1C(=O)N[C@H](C(=O)N1CCC[C@H]1C(=O)N[C@@H](CCC(=O)O)C(=O)N[C@@H](CCC(=O)O)C(=O)N[C@@H](Cc1ccccc1)C(N)=O)[C@@H](C)O [KRFLPSCVRSIQNLDDALPTPEEF]
MIC (Escherichia coli TOP 10): ≥ 36 µM

SMILES: CC[C@H](C)[C@H](N)C(=O)N[C@@H](CCCCN)C(=O)N[C@@H](C)C(=O)N[C@@H](CC(C)C)C(=O)N[C@@H](CC(C)C)C(=O)N[C@@H](C)C(=O)N[C@@H](CC(C)C)C(=O)N1CCC[C@H]1C(=O)N[C@@H](CCCCN)C(=O)N[C@@H](CC(C)C)C(=O)N[C@@H](C)C(=O)N[C@@H](CCCCN)C(=O)N[C@@H](CCCCN)C(=O)N[C@H](C(=O)N[C@@H](C)C(=O)N[C@@H](CCCCN)C(=O)N[C@@H](CCCCN)C(=O)N[C@@H](Cc1ccccc1)C(=O)N[C@@H](CC(C)C)C(=O)N[C@@H](CCCCN)C(N)=O)[C@@H](C)CC [IKALLALPKLAKKIAKKFLK]
MIC (Escherichia coli TOP 10): 22.4 µM (≈ 50 µg/mL)

SMILES: CC[C@H](C)[C@H](NC(=O)CNC(C)=O)C(=O)N[C@@H](CCCN=C(N)N)C(=O)N[C@@H](CCCN=C(N)N)C(=O)N[C@H](C(=O)N[C@@H](CC(C)C)C(=O)N[C@@H](CCCCN)C(=O)N[C@@H](Cc1ccc(O)cc1)C(=O)NCC(=O)N[C@@H](CCCCN)C(=O)N[C@@H](CCCN=C(N)N)C(=O)N[C@@H](CO)C(N)=O)[C@@H](C)CC [GIRRILKYGKRS]
MIC [1]: 20 µM (≈ 29.8 µg/mL)
MIC [2]: 20 µM (≈ 29.8 µg/mL)
MIC [3]: 5 µM (≈ 7.44 µg/mL)
MIC [4]: 2.2 µM (≈ 3.27 µg/mL)
MIC [5]: 5 µM (≈ 7.44 µg/mL)

SMILES: CC[C@H](C)[C@H](NC(=O)CN)C(=O)N[C@@H](C)C(=O)N[C@@H](CC(=O)O)C(=O)N[C@H](C(=O)N[C@@H](CC(C)C)C(=O)N[C@@H](CCCCN)C(=O)N[C@@H](Cc1ccc(O)cc1)C(=O)NCC(=O)N[C@@H](CCCCN)C(=O)N1CCC[C@H]1C(=O)N[C@@H](CO)C(N)=O)[C@@H](C)CC [GIADILKYGKPS]
MIC [1]: 10 µM (≈ 12.6 µg/mL)
MIC [2]: 15 µM (≈ 18.9 µg/mL)
MIC [3]: ≥ 50 µM
MIC [4]: 20 µM (≈ 25.2 µg/mL)
MIC [5]: 30 µM (≈ 37.8 µg/mL)

SMILES: CC(C)C[C@H](NC(=O)[C@H](Cc1c[nH]c2ccccc12)NC(=O)[C@H](CCCCN)NC(=O)[C@H](CCCCN)NC(=O)[C@H](CC(C)C)NC(=O)[C@H](Cc1c[nH]c2ccccc12)NC(=O)[C@@H](N)CCCCN)C(N)=O [KWLKKWL]
MIC [1]: > 79.9 µM
MIC [12]: ≥ 79.9 µM
MIC [13]: ≥ 79.9 µM
MIC [14]: > 79.9 µM
MIC [15]: > 79.9 µM
MIC [5]: ≥ 79.9 µM
MIC [16]: ≥ 79.9 µM
MIC [17]: ≥ 79.9 µM
MIC [18]: > 79.9 µM
MIC [19]: ≥ 79.9 µM

SMILES: CC[C@H](C)[C@H](NC(=O)CN)C(=O)N[C@@H](CCCCN)C(=O)N[C@@H](CC(=O)O)C(=O)N[C@H](C(=O)N[C@@H](CC(C)C)C(=O)N[C@@H](CCCCN)C(=O)N[C@@H](Cc1ccc(O)cc1)C(=O)NCC(=O)N[C@@H](CCCCN)C(=O)N1CCC[C@H]1C(=O)N[C@@H](CO)C(N)=O)[C@@H](C)CC [GIKDILKYGKPS]
MIC [1]: 5 µM (≈ 6.59 µg/mL)
MIC [2]: 30 µM (≈ 39.5 µg/mL)
MIC [3]: 10 µM (≈ 13.2 µg/mL)
MIC [4]: 15 µM (≈ 19.8 µg/mL)
MIC [5]: 10 µM (≈ 13.2 µg/mL)

SMILES: CC(C)C[C@H](NC(=O)[C@H](Cc1c[nH]c2ccccc12)NC(=O)[C@H](CCCCN)NC(=O)[C@H](CC(C)C)NC(=O)[C@H](CC(C)C)NC(=O)[C@H](CCCCN)NC(=O)[C@H](CCCCN)NC(=O)[C@H](CC(C)C)NC(=O)[C@@H](N)CC(C)C)C(=O)N[C@@H](CCCCN)C(=O)N[C@@H](CCCCN)C(N)=O [LLKKLLKWLKK]
MIC [1]: 2.84 µM (≈ 4 µg/mL)
MIC [12]: 2.84 µM (≈ 4 µg/mL)
MIC [13]: 2.84 µM (≈ 4 µg/mL)
MIC [14]: 5.67 µM (≈ 7.99 µg/mL)
MIC [15]: 2.84 µM (≈ 4 µg/mL)
MIC [5]: 2.84 µM (≈ 4 µg/mL)
MIC [16]: 1.42 µM (≈ 2 µg/mL)
MIC [17]: 11.3 µM (≈ 16 µg/mL)
MIC [18]: 2.84 µM (≈ 4 µg/mL)
MIC [19]: 2.84 µM (≈ 4 µg/mL)

SMILES: CC[C@H](C)[C@H](NC(=O)[C@H](C)NC(=O)CNC(=O)[C@H](Cc1ccccc1)NC(=O)[C@H](CC(C)C)NC(=O)CN)C(=O)N[C@@H](C)C(=O)NCC(=O)N[C@@H](Cc1ccccc1)C(=O)N[C@H](C(=O)N[C@@H](CCCCN)C(=O)NCC(=O)NCC(=O)N[C@@H](Cc1c[nH]c2ccccc12)C(=O)N[C@@H](CCC(N)=O)C(=O)NCC(=O)N[C@@H](CCSC)C(=O)N[C@H](C(=O)N[C@@H](CCCCN)C(=O)NCC(N)=O)C(C)C)[C@@H](C)CC [GLFGAIAGFIKGGWQGMVKG]
MIC [23]: 11.1 µM (≈ 22.1 µg/mL)
MIC [24]: 15.7 µM (≈ 31.3 µg/mL)
MIC [14]: > 62.7 µM
MIC [18]: 15.7 µM (≈ 31.3 µg/mL)

Now from value to molecule:

MIC [6]: 2.58 µM (≈ 5 µg/mL)
MIC (Escherichia coli JM109): 1 µM (≈ 1.94 µg/mL)
MIC [7]: 5.16 µM (≈ 10 µg/mL)
MIC [8]: 5.16 µM (≈ 10 µg/mL)
MIC [9]: 10.3 µM (≈ 20 µg/mL)
MIC [10]: 2.58 µM (≈ 5 µg/mL)
MIC [11]: 5.16 µM (≈ 10 µg/mL)
SMILES: CC[C@H](C)[C@H](N)C(=O)N[C@@H](CC(C)C)C(=O)N1CCC[C@H]1C(=O)N[C@@H](Cc1c[nH]c2ccccc12)C(=O)N[C@@H](CCCCN)C(=O)N[C@@H](Cc1c[nH]c2ccccc12)C(=O)N[C@@H](CCCCN)C(=O)N[C@@H](Cc1c[nH]c2ccccc12)C(=O)N[C@@H](Cc1c[nH]c2ccccc12)C(=O)N1CCC[C@H]1C(=O)N[C@@H](Cc1c[nH]c2ccccc12)C(=O)N[C@@H](CCCN=C(N)N)C(=O)N[C@@H](CCCN=C(N)N)C(N)=O [ILPWKWKWWPWRR]

MIC [6]: 12.5 µM (≈ 20.6 µg/mL)
MIC [20]: 25 µM (≈ 41.3 µg/mL)
MIC [21]: 25 µM (≈ 41.3 µg/mL)
MIC [7]: 12.5 µM (≈ 20.6 µg/mL)
MIC [9]: 12.5 µM (≈ 20.6 µg/mL)
MIC [22]: 6.25 µM (≈ 10.3 µg/mL)
MIC [11]: 1.56 µM (≈ 2.57 µg/mL)
SMILES: CC(C)C[C@H](NC(=O)[C@H](CCCCN)NC(=O)[C@H](CCCCN)NC(=O)[C@H](Cc1c[nH]c2ccccc12)NC(=O)[C@@H](N)CCCCN)C(=O)N[C@@H](CC(C)C)C(=O)N[C@@H](CCCCN)C(=O)N[C@@H](CCCCN)C(=O)N1CCC[C@H]1C(=O)N[C@@H](CC(C)C)C(=O)N[C@@H](CC(C)C)C(=O)N[C@@H](CCCCN)C(=O)N[C@@H](CCCCN)C(N)=O [KWKKLLKKPLLKK]

MIC [4]: 35.4 µM (≈ 97.2 µg/mL)
MIC [18]: > 50 µM
MIC (Escherichia coli D21): ≥ 50 µM
SMILES: CC[C@H](C)[C@H](NC(=O)[C@H](CCCCN)NC(=O)[C@H](CCCN=C(N)N)NC(=O)[C@@H](NC(=O)[C@H](CC(C)C)NC(=O)[C@H](CCC(N)=O)NC(=O)[C@@H](NC(=O)[C@H](Cc1ccc(O)cc1)NC(=O)[C@H](CCC(N)=O)NC(=O)[C@@H]1CCCN1C(=O)[C@@H](NC(=O)[C@H](CC(C)C)NC(=O)[C@@H](NC(=O)[C@H](Cc1c[nH]c2ccccc12)NC(=O)[C@H](CC(C)C)NC(=O)[C@H](CO)NC(=O)[C@@H]1CCCN1C(=O)[C@H](Cc1cnc[nH]1)NC(=O)[C@@H](N)Cc1ccccc1)C(C)C)[C@@H](C)CC)[C@@H](C)CC)[C@@H](C)CC)C(=O)N[C@@H](CC(C)C)C(=O)N[C@@H](CCCCN)C(=O)N[C@@H](CO)C(=O)NCC(=O)O [FHPSLWVLIPQYIQLIRKILKSG]
